Experiments:
[1] = Proton exchange pKA of probe; format: physicochemical; settings: dynamic proton exchange of the probe
Experimental: (§1) Displacement of Mn^2+ from RNA by RSG1.2, or neomycin b: Binding of RSG1.2 and neomycin b to each of the hairpins was studied at [RNA] between 20 and 30 μM, and again at [RNA]˜3 μM. The higher concentration studies were performed in a manner identical to that described above for the Mg^2+ exchange reactions. For the low concentration studies, HPO3^2− (20 mM) was used as the probe ion. Reactions were run in 10 mM PIPES buffer, with 45 mM KCl and [Mn^2+] between 50 and 150 nM. The pH of the samples was maintained at 7.8 in these experiments. Studies utilizing HPO3^2− are impractical at lower pH where the probe undergoes dynamic proton exchange (pKA=6.0) leading to significant shortening of the diamagnetic ^31P T2.

another RRE1 model = settings: cited from earlier work
RRE2 = experiment: Displacement of Mn2+ from RNA by neomycin b (probe 31P relaxation); format: binding; settings: each condition studied
Experimental: (§2) Mn^2+ binding by RNA constructs, and its displacement by either K^+ or Mg^2+. Samples containing MeOPH (5 mM) and PIPES buffer (5 mM, pH=7.2), and 3 μM Mn^2+ were titrated with each RNA. The ^31P transverse relaxation rates (R2=1/T2) of the probe in the resulting solutions were measured. Plots of R2 versus [RNA] were prepared. The effects of [K^+] and [Mg^2+] on Mn^2+ binding were determined by titrating similar solutions containing buffer, MeOPH, Mn^2+ and one of the RNAs (10 to 30 μM) with solutions of either KCl or MgCl2, and monitoring the relaxation rate of the probe as a function of cation concentration. The effects of [K^+] were studied over the range of 12.5 to 150 mM ([…] K^+ is reportedly 140 mM). Mn^2+ displacements from each of the hairpins by Mg^2+, neomycin b, and RSG1.2 were studied in the absence of added KCl and with sufficient KCl added to bring the total [K^+] to 100 mM.
as §1, with “The pH of the samples was maintained at 7.8 in these experiments. Studies utilizing HPO3^2− are impractical at lower pH where the probe undergoes dynamic proton exchange (pKA=6.0) leading to significant shortening of the diamagnetic ^31P T2.” left out

RRE1 = experiment: as above; format: binding; settings: each condition studied
Experimental: as §2
as §1, with “The pH of the samples was maintained at 7.8 in these experiments. Studies utilizing HPO3^2− are impractical at lower pH where the probe undergoes dynamic proton exchange (pKA=6.0) leading to significant shortening of the diamagnetic ^31P T2.” left out

[2] = system: 27-nt A-site RNA construct; experiment: Displacement of Mn2+ from RNA by neomycin (probe 31P relaxation); format: binding
Experimental: The ^31P T2 was measured for each sample by varying the length (number of pulses) of the CPMG portion of the pulse sequence in FIG. 2 and determining the effect of this change on the intensity (i) of the signals. […] The dl delay was typically 5 to 20 seconds, and delays in the inept and reverse inept parts of the sequence were set to a value equal to 1/4J, where J is the ^1H—^31P coupling constant. Delays between pulses in the CPMG train varied from 50 to 500 microseconds.
The data shown in FIG. 9 were most consistent with a model where three neomycin molecules were bound to each RNA molecule with subsequent release of Mn^2+.
as §2
as §1, with “Studies utilizing HPO3^2− are impractical at lower pH where the probe undergoes dynamic proton exchange (pKA=6.0) leading to significant shortening of the diamagnetic ^31P T2.” left out

equivalents of neomycin bound (RRE2)	equivalents of neomycin bound (RRE1)	neomycin molecules bound to each RNA molecule ([2]; RNA 27 μM, Mn^2+ 16 μM (Example 11))	equivalents of neomycin bound ([2]; [RNA]=2.7 μM, 100 mM K^+)	equivalents of neomycin bound ([2]; [RNA]=27 μM (Example 16, data not shown))	SMILES	pKA [1]	equivalents of neomycin b bound (another RRE1 model)
–	–	–	–	–	O=[PH](O)O [HPO3^2−, phosphite dianion]	6.0	–
multiple equivalents	multiple equivalents	three	single equivalent	3	NC[C@@H]1O[C@H](O[C@H]2[C@@H](O)[C@H](O[C@@H]3[C@@H](O)[C@H](N)C[C@H](N)[C@H]3O[C@H]3O[C@H](CN)[C@@H](O)[C@H](O)[C@H]3N)O[C@@H]2CO)[C@H](N)[C@@H](O)[C@@H]1O [neomycin, neomycin b]	–	three

Source: patent US7037660B2, “Methods for detecting and quantifying binding and inhibition of binding of species to nucleic acids” (Message Pharmaceuticals, priority 2001, dated 2006)
